{
  "source": "patent US20230210819A1",
  "about": "“USE OF BENZISOSELAZOLE DERIVATIVE FOR ANTI-CORONAVIRUS AND CONTROL OF INTERSTITIAL LUNG DISEASE (ILD) RELATED TO CORONAVIRUS” (SHANGHAI YUANXI MEDICINE CORP., priority 2020, published 2023)",
  "assay_type_in_all_cases": "in vivo, C57 mice",
  "key": {"[1]": {"test_system": "bleomycin-induced mouse lung disease model", "assay": "Blood gas analysis, 24-h modeling", "details": "for BEect / HCO3^- / PCO2: arterial blood after administration ended", "method": "(§1) Animals of 24-h modeling were randomly divided into 5 groups according to the table below, 3 animals per control group and 5 animals per test group.\n(§2) Drug administration began 24 h or 7 d after modeling. […] The day of the first administration was counted as D1, the next day as D2, and so forth. The normal groups and Model groups were given 200 µL of normal saline daily by gavage administration.\n(§3) 1. After being anaesthetized, a mouse was fixed to a board in a supine position.\n(§4) 2. After the skin was disinfected with alcohol, a midline cut of about 1.5 cm was made downward in the skin of the neck. The connective tissue between the sternohyoid muscle and the stemothyroid muscle was separated along the anterior border of the sternomastoid muscle with a tissue forceps. The pulsating common carotid artery could be seen on the deep right side of the trachea. A common carotid artery of about 1.5 cm in length was separated. The distal end was ligated with silk thread, and the proximal end was clipped with an artery clip and threaded with a silk thread for later use. The mouse board was placed under a dissecting microscope, and a V-shaped centripetal incision was gently made in a site near the distal end of the artery with a microscopy scissor. A PE microcatheter was inserted into the artery and fixed by making a knot with silk thread. The artery clip was removed, and 0.1-0.2 mL of blood was collected with a 1 mL syringe. The proximal end was clipped with an artery clip, and the syringe was removed. The blood was immediately analyzed on an AbboTTi-STAT blood gas microanalyzer.\n(§5) In a blood gas analysis, the H^+ concentration in the blood and gases (mainly CO2 and O2) dissolved in the blood can be determined to directly reflect the function of pulmonary ventilation and the acid-base balance state. They are used to determine in the organism whether the acid-base balance is upset, whether anoxia occurred, the level of anoxia, and so forth."}, "[2]": {"test_system": "bleomycin-induced mouse lung disease model", "assay": "Lung HE pathological analysis (Ashcroft score), 24-h modeling", "details": "for HE score (pulmonary fibrosis, Ashcroft): 15 fields of view", "method": "as §1, §2\n1. […] Specifically, a mold was prepared first, and then the tissue was laid flat at the bottom of the mold; after the section face was arranged facedown, the embedding box cover was put on the mold; molten wax was poured into the mold until it overflowed the mold, and then the mold was gently lifted up and laid flat in a freezing platform; after being rapidly cooled and frozen for about 10 min, the mold was took out. • 6) Sectioning method\n2. HE staining • 1) A flat section was selected for HE staining. • 2) The section was dewaxed in xylene I for 20 min. • 3) The section was dewaxed in xylene II for 20 min. • 4) The section was soaked in absolute ethanol for 10 min. • 5) Stepwise rehydrating, in absolute ethanol for 5 min, in 90% ethanol for 5 min, in 80% ethanol for 5 min, and in […] for 5 min; and a water wash. • 6) Staining with hematoxylin for 3-5 min. A water wash. • 7) Differentiating with 1% HCl-[…] for 5-10 s. A water wash, and bluing. • 8) Staining with eosin for 30-60 s. A water wash. • 9) Washing with 80% ethanol for 3-5 s, with 95% ethanol for 3-5 s, and with absolute ethanol for 3-5 s. • 10) Coverslipping with neutral resin, observing under a microscope, and photographing.\nHE sectioning: 3 sections were consecutively made; flat sections of complete tissue were selected for HE staining; each of the sections was photographed in 3 randomly selected fields of view at 200x magnification. The obtained images were scored.\nThe general standard Ashcroft scoring method for pulmonary fibrosis tissues was adopted in HE scoring. The HE pathological analysis is an outcome evaluation for irreversible pulmonary fibrosis that develops in interstitial lung disease models.\nFor 5 animals from each of the 24-h modeling groups, a total of 15 HE fields of view were scored. […] According to the scoring criteria, a score below 3 points indicates there has been no significant structural change accompanying in the lung tissues."}, "[3]": {"test_system": "bleomycin-induced mouse lung disease model", "assay": "Blood gas analysis, 7-d modeling", "details": "for BEect / HCO3^- / PCO2: arterial blood after administration ended", "method": "(§6) Animals of 7-d modeling were randomly divided into 7 groups according to the table below, 6 animals per control group and 12 animals per test group.\nas §2, §3, §4, §5"}, "[4]": {"test_system": "bleomycin-induced mouse lung disease model", "assay": "Lung and spleen coefficients, 7-d modeling", "method": "as §6, §2\nMethod: after being euthanized, the animals were dissected, and the heart, liver, spleen, lung and kidney were weighed.\nIn this experiment, 105 C57 mice were randomly selected and subjected to organ drip administration of a single dose of bleomycin at 2.5 mg/kg for 24 h or 7 d for induction. After 7 days of induction, 3 model mice were randomly selected and dissected to determine whether the modeling was successful. After modeling, the survival of the mice was recorded. The living states of the mice were observed and their body weight was measured at a fixed time.\nA normal control group comprised 6 mice."}, "[5]": {"details": "Dex 1-1.5 mg/kg i.p. every two days"}, "[6]": {"details": "24-h modeling, Dex 1-1.5 mg/kg i.p. every two days"}, "[7]": {"details": "24-h modeling, BS 90 mg/kg gavage daily"}},
  "data": [
    {"smiles": "C[C@@H]1C[C@H]2[C@@H]3CCC4=CC(=O)C=C[C@]4(C)[C@@]3(F)[C@@H](O)C[C@]2(C)[C@@]1(O)C(=O)CO", "note": "[Dex, dexamethasone, reference compound]", "values": [
      {"measurement": "BEect", "setting": "[1]; [5]", "value": "-9.20 ± 1.30", "unit": "mmol/L"},
      {"measurement": "HCO3^-", "setting": "[1]; [5]", "value": "28.28 ± 1.56", "unit": "mmol/L"},
      {"measurement": "PCO2", "setting": "[1]; [5]", "value": "32.52±2.73", "unit": "mmHg"},
      {"measurement": "HE score and benefit rate, >4 points (percent of fields)", "setting": "[2]; [6]", "value": 0, "unit": "%"},
      {"measurement": "HE score and benefit rate, >5, points (percent of fields)", "setting": "[2]; [6]", "value": 0, "unit": "% 0%"},
      {"measurement": "HE score and benefit rate, ≥3 points (percent of fields)", "setting": "[2]; [6]", "value": 53.3, "unit": "%"},
      {"measurement": "HE score (pulmonary fibrosis, Ashcroft)", "setting": "[2]; [6]", "value": "2.53 ± 0.52"},
      {"measurement": "BEect", "setting": "[3]; [5]", "value": "-8.50 ± 1.05", "unit": "mmol/L"},
      {"measurement": "HCO3^-", "setting": "[3]; [5]", "value": "27.82 ± 1.08", "unit": "mmol/L"},
      {"measurement": "PCO2", "setting": "[3]; [5]", "value": "33.60±1.92", "unit": "mmHg"},
      {"measurement": "Lung coefficient", "setting": "[4]; [5]", "value": "0.96±0.08", "unit": "%"},
      {"measurement": "Spleen coefficient", "setting": "[4]; [5]", "value": "0.43±0.04", "unit": "%"}
    ]},
    {"smiles": "O=c1c2ccccc2[se]n1CCCCn1[se]c2ccccc2c1=O", "note": "[BS, 1,4-[bis(1,2-benzisoselenazol-3(2H)-one)]butane]", "values": [
      {"measurement": "BEect", "setting": "[1]; BS 90 mg/kg gavage daily", "value": "-9.40 ± 1.14", "unit": "mmol/L"},
      {"measurement": "HCO3^-", "setting": "[1]; BS 90 mg/kg gavage daily", "value": "30.00 ± 1.20", "unit": "mmol/L"},
      {"measurement": "PCO2", "setting": "[1]; BS 90 mg/kg gavage daily", "value": "30.84±1.21", "unit": "mmHg"},
      {"measurement": "Effect on blood gas analysis (in words)", "setting": "[1]; BS 90 mg/kg, better than Dex (1-1.5 mg/kg) in general", "value": "significant improvements to the function of pulmonary ventilation and the acid-base balance states"},
      {"measurement": "Effect on lung tissue structure, HE (in words)", "setting": "[2]; 24-h model, early stage of pulmonary fibrosis, BS 90 mg/kg", "value": "significantly reduce structural changes in lung tissues"},
      {"measurement": "HE score and benefit rate, >4 points (fields/total)", "setting": "[2]; [7]", "value": "3/15"},
      {"measurement": "HE score and benefit rate, >4 points (percent of fields)", "setting": "[2]; [7]", "value": 20.0, "unit": "%"},
      {"measurement": "HE score and benefit rate, >5, points (fields/total)", "setting": "[2]; [7]", "value": "0/15 0/15"},
      {"measurement": "HE score and benefit rate, >5, points (percent of fields)", "setting": "[2]; [7]", "value": 0, "unit": "% 0%"},
      {"measurement": "HE score and benefit rate, ≥3 points (fields/total)", "setting": "[2]; [7]", "value": "12/15"},
      {"measurement": "HE score and benefit rate, ≥3 points (percent of fields)", "setting": "[2]; [7]", "value": 80.0, "unit": "%"},
      {"measurement": "HE score (pulmonary fibrosis, Ashcroft)", "setting": "[2]; [7]", "value": "3.00 ± 0.65"},
      {"measurement": "Clear lung tissue damage (HE score up to 5 points), in words", "setting": "[2]; 24-h modeling, after 35 days of administration, Dex 1-1.5 mg/kg, BS 90 mg/kg", "value": "no clear lung tissue damage occurred"},
      {"measurement": "Effect on blood gas analysis (in words)", "setting": "[3]; BS 90 mg/kg and 180 mg/kg, better than Dex (1-1.5 mg/kg) in general", "value": "significant improvements to the function of pulmonary ventilation and the acid-base balance states"},
      {"measurement": "BEect", "setting": "[3]; BSH: BS 180 mg/kg gavage daily", "value": "-8.00 ± 1.10", "unit": "mmol/L"},
      {"measurement": "HCO3^-", "setting": "[3]; BSH: BS 180 mg/kg gavage daily", "value": "27.82 ± 0.91", "unit": "mmol/L"},
      {"measurement": "PCO2", "setting": "[3]; BSH: BS 180 mg/kg gavage daily", "value": "32.82±2.02", "unit": "mmHg"},
      {"measurement": "BEect", "setting": "[3]; BSL: BS 36 mg/kg gavage daily", "value": "-15.67 ± 4.13", "unit": "mmol/L"},
      {"measurement": "HCO3^-", "setting": "[3]; BSL: BS 36 mg/kg gavage daily", "value": "22.30 ± 1.51", "unit": "mmol/L"},
      {"measurement": "PCO2", "setting": "[3]; BSL: BS 36 mg/kg gavage daily", "value": "27.45±1.35", "unit": "mmHg"},
      {"measurement": "BEect", "setting": "[3]; BSM: BS 90 mg/kg gavage daily", "value": "-9.83 ± 0.75", "unit": "mmol/L"},
      {"measurement": "HCO3^-", "setting": "[3]; BSM: BS 90 mg/kg gavage daily", "value": "30.57 ± 1.42", "unit": "mmol/L"},
      {"measurement": "PCO2", "setting": "[3]; BSM: BS 90 mg/kg gavage daily", "value": "31.62±1.34", "unit": "mmHg"},
      {"measurement": "Effect on lung coefficient (in words)", "setting": "[4]; BS 90 mg/kg or 180 mg/kg, effect better than that of Dex", "value": "significantly reduce increases in the lung coefficient"},
      {"measurement": "Effect on spleen coefficient (in words)", "setting": "[4]; BS 180 mg/kg, effect better than that of Dex", "value": "significantly decrease the spleen coefficient"},
      {"measurement": "Lung coefficient", "setting": "[4]; BSH: BS 180 mg/kg gavage daily", "value": "0.88±0.05", "unit": "%"},
      {"measurement": "Spleen coefficient", "setting": "[4]; BSH: BS 180 mg/kg gavage daily", "value": "0.39±0.02", "unit": "%"},
      {"measurement": "Lung coefficient", "setting": "[4]; BSL: BS 36 mg/kg gavage daily", "value": "0.97±0.07", "unit": "%"},
      {"measurement": "Spleen coefficient", "setting": "[4]; BSL: BS 36 mg/kg gavage daily", "value": "0.40±0.07", "unit": "%"},
      {"measurement": "Lung coefficient", "setting": "[4]; BSM: BS 90 mg/kg gavage daily", "value": "0.90±0.09", "unit": "%"},
      {"measurement": "Spleen coefficient", "setting": "[4]; BSM: BS 90 mg/kg gavage daily", "value": "0.40±0.05", "unit": "%"}
    ]}
  ]
}
